Data reported in ChEMBL document CHEMBL2157893, “A potent and orally active antagonist (SM-406/AT-406) of multiple inhibitor of apoptosis proteins (IAPs) in clinical development for cancer treatment” (J Med Chem, 2011).
The source made the active and inactive calls. No cut-off for these calls is given here.

Columns and labels:
[1] = tested on: Cynomolgus monkey; assay: Oral bioavailability in cynomolgus monkey at 5 mg/kg; assay type: ADME, organism-based, Macaca fascicularis; settings: in vivo
[2] = tested on: Canis familiaris; assay: AUC (0 to t) in beagle dog at 10 mg/kg, po; assay type: ADME, organism-based, Canis lupus familiaris, Plasma; set-up: dose 10 mg/kg, route oral; settings: in vivo
[3] = tested on: Canis familiaris; assay: Half life in beagle dog at 5 mg/kg, iv; assay type: ADME, organism-based, Canis lupus familiaris; set-up: dose 5 mg/kg, route intravenous; settings: in vivo
[4] = tested on: Rattus norvegicus; assay: Half life in Sprague-Dawley rat at 25 mg/kg, po; assay type: ADME, organism-based; set-up: dose 25 mg/kg, route oral; settings: in vivo
[5] = tested on: Mus musculus; assay: Half life in mouse at 10 mg/kg, iv; assay type: ADME, organism-based; set-up: dose 10 mg/kg, route intravenous; settings: in vivo
[6] = tested on: Rattus norvegicus; assay: AUC (0 to t) in Sprague-Dawley rat at 25 mg/kg, po; assay type: ADME, organism-based, Plasma; set-up: dose 25 mg/kg, route oral; settings: in vivo
[7] = tested on: Canis familiaris; assay: Oral bioavailability in beagle dog at 10 mg/kg; assay type: ADME, organism-based, Canis lupus familiaris; settings: in vivo
[8] = tested on: Cynomolgus monkey; assay: AUC (0 to t) in cynomolgus monkey at 5 mg/kg, po; assay type: ADME, organism-based, Macaca fascicularis, Plasma; set-up: dose 5 mg/kg, route oral; settings: in vivo
[9] = tested on: Cynomolgus monkey; assay: Half life in cynomolgus monkey at 5 mg/kg, po; assay type: ADME, organism-based, Macaca fascicularis; set-up: dose 5 mg/kg, route oral; settings: in vivo
[10] = tested on: Canis familiaris; assay: Half life in beagle dog at 10 mg/kg, po; assay type: ADME, organism-based, Canis lupus familiaris; set-up: dose 10 mg/kg, route oral; settings: in vivo
[11] = tested on: Mus musculus; assay: AUC (0 to t) in mouse at 10 mg/kg, iv; assay type: ADME, organism-based, Plasma; set-up: dose 10 mg/kg, route intravenous; settings: in vivo
[12] = tested on: Cynomolgus monkey; assay: Half life in cynomolgus monkey at 2.5 mg/kg, iv; assay type: ADME, organism-based, Macaca fascicularis; set-up: dose 2.5 mg/kg, route intravenous; settings: in vivo
[13] = tested on: Mus musculus; assay: AUC (0 to t) in mouse at 30 mg/kg, po; assay type: ADME, organism-based, Plasma; set-up: dose 30 mg/kg, route oral; settings: in vivo
[14] = tested on: Cynomolgus monkey; assay: AUC (0 to t) in cynomolgus monkey at 2.5 mg/kg, iv; assay type: ADME, organism-based, Macaca fascicularis, Plasma; set-up: dose 2.5 mg/kg, route intravenous; settings: in vivo
[15] = tested on: Rattus norvegicus; assay: Half life in Sprague-Dawley rat at 5 mg/kg, iv; assay type: ADME, organism-based; set-up: dose 5 mg/kg, route intravenous; settings: in vivo
[16] = tested on: Mus musculus; assay: Half life in mouse at 30 mg/kg, po; assay type: ADME, organism-based; set-up: dose 30 mg/kg, route oral; settings: in vivo
[17] = tested on: Rattus norvegicus; assay: Oral bioavailability in Sprague-Dawley rat at 25 mg/kg; assay type: ADME, organism-based; settings: in vivo
[18] = tested on: Canis familiaris; assay: AUC (0 to t) in beagle dog at 5 mg/kg, iv; assay type: ADME, organism-based, Canis lupus familiaris, Plasma; set-up: dose 5 mg/kg, route intravenous; settings: in vivo
[19] = tested on: Mus musculus; assay: Oral bioavailability in mouse at 30 mg/kg; assay type: ADME, organism-based; settings: in vivo
[20] = molecular target: E3 ubiquitin-protein ligase XIAP (Homo sapiens, UniProt P98170); assay: Binding affinity to His6-tagged human XIAP BIR3 domain expressed in Escherichia coli BL21(DE3) assessed as dissociation constant after 2 to 3 hrs by fluorescence polarization assay
E3 ubiquitin-protein ligase XIAP, sequence (P98170 whole entry, the tested form may be a part): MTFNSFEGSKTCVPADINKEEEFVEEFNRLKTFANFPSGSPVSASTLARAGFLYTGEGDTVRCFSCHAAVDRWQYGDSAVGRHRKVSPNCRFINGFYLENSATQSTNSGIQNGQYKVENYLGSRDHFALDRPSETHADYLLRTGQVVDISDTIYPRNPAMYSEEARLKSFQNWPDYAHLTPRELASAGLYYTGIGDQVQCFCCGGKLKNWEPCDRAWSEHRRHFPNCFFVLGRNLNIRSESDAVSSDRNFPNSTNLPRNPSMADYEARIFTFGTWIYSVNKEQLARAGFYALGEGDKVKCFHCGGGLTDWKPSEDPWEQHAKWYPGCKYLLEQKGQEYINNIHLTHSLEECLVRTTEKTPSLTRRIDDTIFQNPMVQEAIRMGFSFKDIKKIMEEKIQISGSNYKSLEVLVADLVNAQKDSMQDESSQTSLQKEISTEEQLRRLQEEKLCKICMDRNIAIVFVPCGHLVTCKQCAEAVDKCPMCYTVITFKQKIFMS

[21] = molecular target: Baculoviral IAP repeat-containing protein 2 (Homo sapiens, UniProt Q13490); assay: Binding affinity to human cIAP1 BIR3 domain expressed in Escherichia coli BL21(DE3) assessed as dissociation constant after 2 to 3 hrs by fluorescence polarization assay
Baculoviral IAP repeat-containing protein 2, sequence (Q13490 whole entry, the tested form may be a part): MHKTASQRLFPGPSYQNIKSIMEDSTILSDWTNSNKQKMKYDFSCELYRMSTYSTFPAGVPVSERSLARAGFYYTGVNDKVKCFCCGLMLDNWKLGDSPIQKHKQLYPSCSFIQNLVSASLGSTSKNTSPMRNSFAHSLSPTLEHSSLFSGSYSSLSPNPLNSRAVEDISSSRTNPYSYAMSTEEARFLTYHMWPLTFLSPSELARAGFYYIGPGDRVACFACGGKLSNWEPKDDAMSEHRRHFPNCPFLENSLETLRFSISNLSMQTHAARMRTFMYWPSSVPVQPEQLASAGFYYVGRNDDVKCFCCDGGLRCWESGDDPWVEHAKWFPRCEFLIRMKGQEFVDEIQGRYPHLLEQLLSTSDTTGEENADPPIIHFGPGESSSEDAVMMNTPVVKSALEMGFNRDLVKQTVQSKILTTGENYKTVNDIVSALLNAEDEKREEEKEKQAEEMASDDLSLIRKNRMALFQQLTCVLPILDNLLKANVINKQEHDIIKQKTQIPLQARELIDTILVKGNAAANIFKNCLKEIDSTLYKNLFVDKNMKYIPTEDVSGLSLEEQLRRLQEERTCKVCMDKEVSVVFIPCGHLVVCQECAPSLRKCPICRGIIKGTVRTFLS

[22] = tested on: Mus musculus; assay: Induction of procaspase-8 processing in human MDA-MB-231 cells xenografted in SCID mouse at 7.5 mg/kg, iv administered as single dose measured after 24 hrs by Western blot analysis; assay type: functional, organism-based; set-up: dose 7.5 mg/kg
[23] = tested on: Mus musculus; assay: Toxicity in human MDA-MB-231 cells xenografted in SCID mouse assessed weight loss at 7.5 mg/kg, iv administered once/week for 2 weeks; settings: in vivo, 336 h
[24] = tested on: MDA-MB-231; assay: Antitumor activity against human MDA-MB-231 cells xenografted in SCID mouse assessed inhibition of tumor growth at 7.5 mg/kg, iv administered once/week for 2 weeks
[25] = tested on: Mus musculus; assay: Induction of PARP cleavage in human MDA-MB-231 cells xenografted in SCID mouse at 7.5 mg/kg, iv administered as single dose measured after 24 hrs by Western blot analysis; assay type: functional, organism-based; set-up: dose 7.5 mg/kg
[26] = tested on: Mus musculus; assay: Induction of degradation of cIAP1 in human MDA-MB-231 cells xenografted in SCID mouse at 7.5 mg/kg, iv administered as single dose measured after 24 hrs by Western blot analysis; assay type: functional, organism-based; set-up: dose 7.5 mg/kg

SMILES: CN[C@@H](C)C(=O)N[C@H]1CN(C(=O)CC(C)C)CC[C@H]2CC[C@@H](C(=O)NC(c3ccccc3)c3ccccc3)N2C1=O.Cl
- F [1]: 42%
- AUCt [2]: 90300 ng·h/mL
- t1/2 [3]: 16.3 h
- t1/2 [4]: 1.8 h
- t1/2 [5]: 3 h
- AUCt [6]: 2300 ng·h/mL
- F [7]: 55%
- AUCt [8]: 13500 ng·h/mL
- t1/2 [9]: 5.4 h
- t1/2 [10]: 27.1 h
- AUCt [11]: 3800 ng·h/mL
- t1/2 [12]: 6.3 h
- AUCt [13]: 4300 ng·h/mL
- AUCt [14]: 17900 ng·h/mL
- t1/2 [15]: 1.4 h
- t1/2 [16]: 2.3 h
- F [17]: 45%
- AUCt [18]: 81600 ng·h/mL
- F [19]: 38%

SMILES: CN[C@@H](C)C(=O)N[C@H]1CN(C(=O)CC(C)C)CC[C@H]2CC[C@@H](C(=O)N[C@@H](c3ccccc3)c3cn(CCCCCCCCCCNC(=O)c4ccc(-c5c6ccc(=O)cc-6oc6cc(O)ccc56)c(C(=O)O)c4)nn3)N2C1=O
- Kd [20]: 4.4 nM
- Kd [21]: 0.7 nM

SMILES: CC(=O)O[C@@]12CO[C@@H]1C[C@H](O)[C@@]1(C)C(=O)[C@H](O)C3=C(C)[C@@H](OC(=O)[C@H](O)[C@@H](NC(=O)OC(C)(C)C)c4ccccc4)C[C@@](O)([C@@H](OC(=O)c4ccccc4)[C@H]21)C3(C)C.O.O.O [DOCETAXEL]
- Activity [22]: Active
- Activity [23]: Toxic
- TGI [24]: Active
- Activity [25]: inactive
- Activity [26]: inactive
